The values below come from patent EP1377579B1 (Aventis Pharmaceuticals Inc., priority 2000, dated 2002).

In one experiment the target is cdk4/cyclin D1 (Homo sapiens, UniProt P11802). The experiment is described as follows: Cyclin-dependent kinase assay, cdk4/cyclin D1. As to conditions: cyclin D1/cdk4; GST-pRb substrate, 10 µM ATP. It counts as biochemical.
Another experiment deals with MDA-MB-435. The experiment is described as follows: In vitro proliferation assay (MTT), MDA-MB-435. It counts as cell-based, human. The note with it: Homo sapiens, MDA-MB-435, MTT assay; value (SD, n) where given; read-out: MB-435 Breast (IC50 µM). The procedure, abridged:
(§1)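 IC50 values come from absorbance at 570 nm after MTT staining of cells grown with compound for 3 days. Seeding density was 1000 to 2500 cells/well, depending on the line.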
(In general: Tetrazolium dyes change colour on reduction, which living cells bring about.)

The test system of the next experiment is HL-60. Briefly: In vitro proliferation assay (MTT), HL-60. Format: cell-based. The note with it: Homo sapiens, HL-60; MTT assay; value (SD, n) where given; read-out: HL-60 Leuk. (IC50 µM). The procedure, abridged:
(§2)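 Tetrazolium (MTT) proliferation test following a 3-day treatment with compound. Read-out is optical density at 570 nm after DMSO solubilization.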

The subject of the next experiment is Jurkat. Briefly: In vitro proliferation assay (MTT), Jurkat. It counts as cell-based. As to conditions: Homo sapiens, MTT assay, value (SD, n) where given, read-out: Jurkat Leuk. (IC50 µM). The procedure, abridged:
as §2

In another experiment the test system is PC-3. Briefly: In vitro proliferation assay (MTT), PC-3. Format: cell-based, human. The note with it: Homo sapiens, PC-3, MTT assay; value (SD, n) where given; read-out: PC-3 Prostate (IC50 µM). The procedure, abridged:
as §1

Experiment [1] has as its system PC-3 Human Prostate Tumors. Briefly: PC-3 human prostate tumor xenograft in nude mice. It counts as in vivo. The note with it: Table 5. On the procedure:
(§3) Antitumor efficacy is assessed using two subcutaneous human tumor xenograft models. The studies are performed using conventional assay techniques. Briefly, HL-60 (leukemia, 5 x10^5 cells) and PC-3 (prostate, 5 x 10^6 cells) tumor cells are injected subcuateously into nude mice (Crl-CD1-Br-nu, Charles River Laboratory, Wilmington, MA). Dosing with compounds began when tumors reached 50 to 100 mm^3. The dose route/schedule for the test compounds is ip/qld (5x/wk). The test doses are set based on the maximum tolerated dose (MTD). […] The test doses for the efficacy studies are set at 1/3rd the MTD (low dose) and the MTD (high dose). The results are shown in Tables 4 and 5 (HL-60, leukemia) (PC-3, prostate cancer). The length of the treatment phase is dependent on the tumor growth rate for the two models. This treatment phase is typically about 3 weeks for the HL-60 model and about 5 weeks for the PC-3 model. […] Dosing with flavopiridol is for the same time frame as for the experimental compounds in both xenograft models. Tumor volume (twice weekly) and body weights (once weekly) are monitored throughout the course of the treatment phase of the experiment. Tumor sizes are measured by external caliper measurements of protruding tumor. Volumes are calculated using the following formula: volume =½ (a x b2), where b is the smaller of two perpendicular diameters.
On the technique in general: In xenograft studies the graft and the host belong to different species.

The test system of a further experiment is HL-60 Human Leukemia. Briefly: HL-60 human leukemia xenograft in nude mice. It counts as in vivo. The note with it: Table 5. On the procedure: as §3
A further experiment addresses cdk1/cyclin B (Homo sapiens, UniProt P06493). The experiment is described as follows: Cyclin-dependent kinase assay, cdk1/cyclin B. As to conditions: CDK1 IC50, nM, Histone H1, 10 µM ATP.
The target in another experiment is cdk2/cyclin E (Homo sapiens, UniProt P24941). Briefly: Cyclin-dependent kinase assay, cdk2/cyclin E. As to conditions: CDK2 IC50, nM, GST-pRb substrate, 10 µM ATP.
The next experiment deals with NCI-H460. The experiment is described as follows: In vitro proliferation assay (MTT), NCI-H460. It counts as cell-based. The note with it: Homo sapiens, NCI-H460; MTT assay; value (SD, n) where given; read-out: H-460 Lung (IC50 µM). An outline of the steps: as §2
Another experiment concerns Colo-205. Briefly: In vitro proliferation assay (MTT), Colo-205. The note with it: Homo sapiens, COLO 205; MTT assay; value (SD, n) where given; read-out: Colo-205 Colon (IC50 µM). Format: cell-based. The procedure, abridged:
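Colo-205 cells were seeded at 1000–2500 cells/well and allowed to attach overnight, then exposed to compound for 3 days. Viable cells were measured by MTT reduction (2–4 h, 37 °C), with DMSO-solubilised dye read at 570 nm. IC50 was derived from concentration–response data.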

Structures can show the parent of a compound that is named as a salt.

The IC50 is the concentration that inhibits the measured activity by half.

Chain of cdk4/cyclin D1 (P11802 whole entry): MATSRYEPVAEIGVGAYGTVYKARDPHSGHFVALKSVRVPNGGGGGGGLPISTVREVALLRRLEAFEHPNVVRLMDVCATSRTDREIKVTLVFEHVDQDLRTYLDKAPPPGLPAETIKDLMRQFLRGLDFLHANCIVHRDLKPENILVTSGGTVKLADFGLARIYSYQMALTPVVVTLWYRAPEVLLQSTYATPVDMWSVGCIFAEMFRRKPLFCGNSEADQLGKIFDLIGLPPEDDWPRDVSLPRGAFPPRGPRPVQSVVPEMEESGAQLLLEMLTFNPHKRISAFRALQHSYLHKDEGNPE
Chain of cdk4/cyclin D1 (P24385 whole entry partner): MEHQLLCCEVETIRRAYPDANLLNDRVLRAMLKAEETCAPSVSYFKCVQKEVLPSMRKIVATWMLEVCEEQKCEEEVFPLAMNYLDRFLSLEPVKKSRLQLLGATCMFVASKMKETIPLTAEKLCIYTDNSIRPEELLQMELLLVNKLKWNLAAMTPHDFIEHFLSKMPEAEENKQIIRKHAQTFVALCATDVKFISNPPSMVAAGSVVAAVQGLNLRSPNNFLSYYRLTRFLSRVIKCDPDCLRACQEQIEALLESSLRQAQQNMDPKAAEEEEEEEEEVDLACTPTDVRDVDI
Chain of cdk1/cyclin B (P06493 whole entry): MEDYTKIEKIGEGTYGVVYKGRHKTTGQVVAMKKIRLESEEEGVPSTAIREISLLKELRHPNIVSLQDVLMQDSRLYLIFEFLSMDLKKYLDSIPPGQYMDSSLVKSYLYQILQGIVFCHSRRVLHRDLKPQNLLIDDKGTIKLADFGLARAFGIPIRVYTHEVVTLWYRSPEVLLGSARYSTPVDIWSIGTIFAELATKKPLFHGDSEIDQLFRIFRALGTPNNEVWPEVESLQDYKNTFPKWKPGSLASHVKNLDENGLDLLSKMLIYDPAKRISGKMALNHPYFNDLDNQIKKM
Chain of cdk1/cyclin B (P14635 whole entry partner): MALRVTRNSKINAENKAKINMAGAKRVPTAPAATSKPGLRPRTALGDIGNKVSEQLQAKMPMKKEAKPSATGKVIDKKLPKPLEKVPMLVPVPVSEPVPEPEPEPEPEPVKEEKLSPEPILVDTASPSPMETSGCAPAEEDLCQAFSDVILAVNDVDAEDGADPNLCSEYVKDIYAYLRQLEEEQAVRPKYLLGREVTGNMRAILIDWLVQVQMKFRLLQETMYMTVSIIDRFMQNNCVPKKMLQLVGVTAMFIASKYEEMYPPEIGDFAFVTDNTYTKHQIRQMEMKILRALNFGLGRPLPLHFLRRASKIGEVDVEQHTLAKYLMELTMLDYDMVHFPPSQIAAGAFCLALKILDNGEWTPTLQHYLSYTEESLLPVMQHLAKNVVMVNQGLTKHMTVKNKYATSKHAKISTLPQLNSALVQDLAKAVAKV

With `N[C@H]1CC[C@H](Nc2nc(NC3CCN(C(=O)c4cccc(C(F)(F)F)c4)CC3)c3ncn(C4CCCC4)c3n2)CC1` [compound 3, dihydrochloride], the IC50 against cdk4/cyclin D1 was found to be 1120 nM; in the experiment with MDA-MB-435 it was 0.25 µM; in the experiment on HL-60, 0.13 µM; in the experiment on Jurkat, 0.22 µM; in the experiment with PC-3 it was 0.66 µM; against cdk1/cyclin B, 55 nM. The compound further displayed an IC50 on cdk2/cyclin E of 48 nM. The “PC-3 Mean Vol. ± SD” value is listed as 671 ± 672 in [1] (dose 1 mg/kg ip) and 785 ± 473 in [1] (dose 3 mg/kg ip). Further, the figures for the “HL60 Mean Vol. ± SD” value in the experiment on HL-60 Human Leukemia (dose 1 mg/kg ip) and with HL-60 Human Leukemia (dose 3 mg/kg ip) were 6370 ± 4655 and 6092 ± 4278, respectively.
On to `C=CCOC(=O)N1CCC(Nc2nc(N[C@H]3CC[C@H](N)CC3)nc3c2ncn3C2CCCC2)CC1` [compound 95, trans-4-[2-(4-Amino-cyclohexylamino)-9-cyclopentyl-9H-purin-6-ylamino]-piperidine-1-carboxylic acid allyl ester dihydrochloride], for which the 50% inhibitory concentration (IC50) on cdk4/cyclin D1 is 526 nM; with MDA-MB-435, 0.24 µM; in the experiment with NCI-H460, 0.2 µM; with HL-60 it was 0.06 µM; in the experiment on Jurkat, 0.18 µM; with PC-3, 0.21 µM. Further, the IC50 with Colo-205 worked out at 0.1 µM; on cdk1/cyclin B it was 75 nM; against cdk2/cyclin E, 23 nM.
`N[C@H]1CC[C@H](Nc2nc(NC3CCN(C(=O)Nc4cccc(Br)c4)CC3)c3ncn(C4CCCC4)c3n2)CC1` [compound 170, trans-4-[2-(4-Amino-cyclohexylamino)-9-cyclopentyl-9H-purin-6-ylamino]-piperidine-1-carboxylic acid (3-bromo-phenyl)-amide dihydrochloride]: the concentration for half-maximal inhibition (IC50) on cdk4/cyclin D1 was 156 nM; with MDA-MB-435, 0.19 µM; with NCI-H460, 0.3 µM; in the experiment with HL-60, less than 0.02 µM; with Jurkat it was 0.24 µM; in the experiment with PC-3, 0.26 µM. The IC50 in the experiment with Colo-205 is less than 0.02 µM; against cdk1/cyclin B, 3 nM; at cdk2/cyclin E it was 51 nM.
For `N[C@H]1CC[C@H](Nc2nc(NC3CCN(C(=O)Nc4ccccc4F)CC3)c3ncn(C4CCCC4)c3n2)CC1` [compound 207, trans-4-[2-(4-Amino-cyclohexylamino)-9-cyclopentyl-9H-purin-6-ylamino]-piperidine-1-carboxylic acid (2-fluoro-phenyl)-amide dihydrochloride], the half-inhibitory concentration (IC50) on cdk4/cyclin D1 is 44 nM; in the experiment on MDA-MB-435 it was 0.11 µM; in the experiment with NCI-H460 it was 0.14 µM; in the experiment with HL-60, 0.02 µM; in the experiment with Jurkat, 0.13 µM; with PC-3, 0.13 µM. Besides, the half-maximal inhibitory concentration (IC50) with Colo-205 was determined as 0.03 µM; at cdk1/cyclin B it was 50 nM; against cdk2/cyclin E, 46 nM.
In the case of `N[C@H]1CC[C@H](Nc2nc(NC3CCN(C(=O)Nc4ccc(Cl)c(C(F)(F)F)c4)CC3)c3ncn(C4CCCC4)c3n2)CC1` [compound 179, trans-4-[2-(4-Amino-cyclohexylamino)-9-cyclopentyl-9H-purin-6-ylamino]-piperidine-1-carboxylic acid (4-chloro-3-trifluoromethyl-phenyl)-amide dihydrochloride], the concentration for half-maximal inhibition (IC50) against cdk4/cyclin D1 turned out to be 497 nM; with MDA-MB-435 it was 0.24 µM; with NCI-H460, 0.5 µM; in the experiment with HL-60, 0.07 µM; with Jurkat, 0.5 µM; in the experiment with PC-3 it was 0.37 µM. Also, the half-maximal inhibitory concentration (IC50) is 0.18 µM in the experiment on Colo-205, 8 nM at cdk1/cyclin B and 261 nM at cdk2/cyclin E.
Regarding `N[C@H]1CC[C@H](Nc2nc(NC3CCN(C(=O)Nc4cc(C(F)(F)F)ccc4F)CC3)c3ncn(C4CCCC4)c3n2)CC1` [compound 200, trans-4-[2-(4-Amino-cyclohexylamino)-9-cyclopentyl-9H-purin-6-ylamino]-piperidine-1-carboxylic acid (2-fluoro-5-trifluoromethyl-phenyl)-amide dihydrochloride], the IC50 on cdk4/cyclin D1 was 597 nM; in the experiment with MDA-MB-435, 0.09 µM; in the experiment with NCI-H460, 0.19 µM; in the experiment on HL-60, less than 0.02 µM; with Jurkat, 0.21 µM; with PC-3 it was 0.16 µM. Further, the IC50 worked out at 0.06 µM in the experiment on Colo-205, 10 nM at cdk1/cyclin B and 23 nM against cdk2/cyclin E.
`C#CCOC(=O)N1CCC(Nc2nc(N[C@H]3CC[C@H](N)CC3)nc3c2ncn3C2CCCC2)CC1` [compound 102, trans-4-[2-(4-Amino-cyclohexylamino)-9-cyclopentyl-9H-purin-6-ylamino]-piperidine-1-carboxylic acid prop-2-ynyl ester dihydrochloride]: the IC50 was 926 nM against cdk4/cyclin D1; 0.19 µM in the experiment on MDA-MB-435; 0.2 µM in the experiment with NCI-H460; less than 0.02 µM in the experiment with HL-60; 0.11 µM in the experiment with Jurkat; 0.14 µM in the experiment on PC-3. The values for the IC50 in the experiment with Colo-205, against cdk1/cyclin B and on cdk2/cyclin E were 0.14 µM, 31 nM and 42 nM, respectively.
For the compound `N[C@H]1CC[C@H](Nc2nc(NC3CCN(C(=O)Nc4ccc(Cl)cc4)CC3)c3ncn(C4CCCC4)c3n2)CC1` [compound 150, trans-4-[2-(4-Amino-cyclohexylamino)-9-cyclopentyl-9H-purin-6-ylamino]-piperidine-1-carboxylic acid (4-chloro-phenyl)-amide dihydrochloride], the 50% inhibitory concentration (IC50) against cdk4/cyclin D1 is 91 nM; in the experiment with MDA-MB-435, 0.2 µM; in the experiment with NCI-H460, 0.19 µM; in the experiment with HL-60, less than 0.02 µM; in the experiment with Jurkat it was 0.24 µM; with PC-3, 0.25 µM. In addition, the IC50 was found to be 0.02 µM in the experiment with Colo-205, 26 nM against cdk1/cyclin B and 55 nM on cdk2/cyclin E.
On to `COC(=O)c1ccccc1NC(=O)N1CCC(Nc2nc(N[C@H]3CC[C@H](N)CC3)nc3c2ncn3C2CCCC2)CC1` [compound 193, trans-2-[(1-{4-[2-(4-Amino-cyclohexylamino)-9-cyclopentyl-9H-purin-6-ylamino]-piperidin-1-yl}-methanoyl)-amino]-benzoic acid methyl ester dihydrochloride], for which the IC50 was determined as 507 nM on cdk4/cyclin D1; 0.17 µM in the experiment on MDA-MB-435; 0.13 µM with NCI-H460; 0.03 µM in the experiment with HL-60; 0.26 µM in the experiment with Jurkat; 0.18 µM in the experiment with PC-3. Moreover, the results for the 50% inhibitory concentration (IC50) with Colo-205, at cdk1/cyclin B and at cdk2/cyclin E were 0.18 µM, 26 nM and 8 nM, respectively.
For `CC(C)c1ccc(NC(=O)N2CCC(Nc3nc(N[C@H]4CC[C@H](N)CC4)nc4c3ncn4C3CCCC3)CC2)cc1` [compound 190, trans-4-[2-(4-Amino-cyclohexylamino)-9-cyclopentyl-9H-purin-6-ylamino]-piperidine-1-carboxylic acid (4-isopropyl-phenyl)-amide dihydrochloride], the concentration for half-maximal inhibition (IC50) was 357 nM at cdk4/cyclin D1; 0.09 µM in the experiment on MDA-MB-435; 0.36 µM in the experiment on NCI-H460; less than 0.02 µM with HL-60; 0.2 µM in the experiment on Jurkat; 0.2 µM with PC-3. Also, the values for the concentration for half-maximal inhibition (IC50) in the experiment with Colo-205, at cdk1/cyclin B and against cdk2/cyclin E were 0.02 µM, 23 nM and 40 nM, respectively.
